This note sets out measurements from patent US11578084B2, “Condensed ring compounds having dopamine D3 receptor antagonistic effect” (Shionogi & Co., Ltd., priority 2018, dated 2023).

pKi: −log10 of the molar value. Like-named read-outs stand apart in the source and are kept apart here.

Data set [1] addresses human recombinant dopamine D3 receptor (Homo sapiens (Human), UniProt P35462). In words: Test of binding inhibition for dopamine D3 receptor ([3H]-Methylspiperone SPA). The note with it: Jump-In HEK cell membranes, 2 nM [3H]-Methylspiperone, 120 min at 25° C.; read-out: hD3_Ki. The method in brief: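 SPA radioligand binding on Jump-In HEK membranes expressing human D3 receptor (4 µg/well) with 2 nM [3H]-methylspiperone (final), incubated 120 min at 25 °C. Non-specific binding defined with 10 µM butaclamol. Percent inhibition computed against total and non-specific binding; Ki from dose-response curves.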

In data set [2] the target is human recombinant dopamine D2 receptor (Homo sapiens (Human), UniProt P14416). In words: Test of binding inhibition for dopamine D2 receptor ([3H]-Methylspiperone SPA). To be noted: Jump-In HEK cell membranes, read-out: hD2_Ki. In outline: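 Incubation was 120 min at 25° C. with human recombinant D2 membranes from Jump-In HEK cells (2 μg/well), WGA SPA beads (0.2 mg/well) and [3H]-Methylspiperone as radioligand.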

Data set [3] has as its target hERG channel (IKr) (Homo sapiens (Human), UniProt Q12809). In words: hERG test (whole cell patch clamp, IKr). The format is cell-based. The note with it: human, CHO cells expressing hERG channel, pH 7.4, 3 μM, tail peak current. The source says:
Test Example 10: hERG Test
For the purpose of assessing risk of an electrocardiogram QT interval prolongation of the compound of the present invention, effects of the compound of the present invention on delayed rectifier K+ current (IKr), which plays an important role in the ventricular repolarization process, was studied using CHO cells expressing human ether-a-go-go related gene (hERG) channel.
After a cell was retained at a membrane potential of −80 mV by whole cell patch clamp method using an automated patch clamp system (QPatch; Sophion Bioscience A/S) and gave a leak potential of −50 mV, IKr induced by depolarization pulse stimulation at +20 mV for 2 seconds and, further, repolarization pulse stimulation at −50 mV for 2 seconds, was recorded. After the generated current was stabilized, extracellular solution (NaCl: 145 mmol/L, KCl: 4 mmol/L, CaCl2): 2 mmol/L, MgCl2: 1 mmol/L, glucose: 10 mmol/L, HEPES (4-(2-hydroxyethyl)-1-piperazineethanesulfonic acid): 10 mmol/L, pH=7.4), in which the compound of the present invention had been dissolved at an objective concentration in the extracellular solution, was applied to the cell at room temperature for 7 minutes or more. From the recording IKr, an absolute value of the tail peak current was measured based on the current value at the resting membrane potential using analysis software (QPatch Assay software; Sophion Bioscience A/S). Further, the % inhibition of tail peak current for the compound of the present invention relative to the tail peak current after application of the solution (0.1% dimethyl sulfoxide solution) was calculated to assess influence of the compound of the present invention on IKr.

The mark [4] stands for this setting: 1.2 nM [3H]-Methylspiperone, 120 min at 25° C.

Chain of human recombinant dopamine D3 receptor (P35462 whole entry): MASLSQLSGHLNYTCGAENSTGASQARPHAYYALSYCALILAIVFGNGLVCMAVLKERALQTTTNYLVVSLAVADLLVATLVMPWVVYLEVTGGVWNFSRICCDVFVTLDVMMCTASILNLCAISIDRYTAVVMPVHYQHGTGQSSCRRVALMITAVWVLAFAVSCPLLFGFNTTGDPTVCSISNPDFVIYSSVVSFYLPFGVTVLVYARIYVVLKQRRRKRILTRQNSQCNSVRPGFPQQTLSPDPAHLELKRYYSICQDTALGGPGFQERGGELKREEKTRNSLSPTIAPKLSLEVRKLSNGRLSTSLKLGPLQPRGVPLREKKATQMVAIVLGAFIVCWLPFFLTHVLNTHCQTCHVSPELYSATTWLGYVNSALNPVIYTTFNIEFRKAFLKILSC
Chain of human recombinant dopamine D2 receptor (P14416 whole entry): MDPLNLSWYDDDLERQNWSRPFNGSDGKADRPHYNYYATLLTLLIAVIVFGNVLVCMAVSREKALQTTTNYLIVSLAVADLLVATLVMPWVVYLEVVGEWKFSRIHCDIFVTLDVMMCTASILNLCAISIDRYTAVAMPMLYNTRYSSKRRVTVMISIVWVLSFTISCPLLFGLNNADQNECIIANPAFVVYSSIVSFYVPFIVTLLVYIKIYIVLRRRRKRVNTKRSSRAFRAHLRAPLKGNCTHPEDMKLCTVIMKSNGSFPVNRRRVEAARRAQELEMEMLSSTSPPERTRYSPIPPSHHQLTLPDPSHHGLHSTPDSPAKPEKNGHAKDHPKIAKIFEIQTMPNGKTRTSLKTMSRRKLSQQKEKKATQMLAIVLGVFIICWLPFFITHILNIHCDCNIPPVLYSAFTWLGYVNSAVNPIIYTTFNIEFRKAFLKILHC
Chain of hERG channel (IKr) (Q12809 whole entry): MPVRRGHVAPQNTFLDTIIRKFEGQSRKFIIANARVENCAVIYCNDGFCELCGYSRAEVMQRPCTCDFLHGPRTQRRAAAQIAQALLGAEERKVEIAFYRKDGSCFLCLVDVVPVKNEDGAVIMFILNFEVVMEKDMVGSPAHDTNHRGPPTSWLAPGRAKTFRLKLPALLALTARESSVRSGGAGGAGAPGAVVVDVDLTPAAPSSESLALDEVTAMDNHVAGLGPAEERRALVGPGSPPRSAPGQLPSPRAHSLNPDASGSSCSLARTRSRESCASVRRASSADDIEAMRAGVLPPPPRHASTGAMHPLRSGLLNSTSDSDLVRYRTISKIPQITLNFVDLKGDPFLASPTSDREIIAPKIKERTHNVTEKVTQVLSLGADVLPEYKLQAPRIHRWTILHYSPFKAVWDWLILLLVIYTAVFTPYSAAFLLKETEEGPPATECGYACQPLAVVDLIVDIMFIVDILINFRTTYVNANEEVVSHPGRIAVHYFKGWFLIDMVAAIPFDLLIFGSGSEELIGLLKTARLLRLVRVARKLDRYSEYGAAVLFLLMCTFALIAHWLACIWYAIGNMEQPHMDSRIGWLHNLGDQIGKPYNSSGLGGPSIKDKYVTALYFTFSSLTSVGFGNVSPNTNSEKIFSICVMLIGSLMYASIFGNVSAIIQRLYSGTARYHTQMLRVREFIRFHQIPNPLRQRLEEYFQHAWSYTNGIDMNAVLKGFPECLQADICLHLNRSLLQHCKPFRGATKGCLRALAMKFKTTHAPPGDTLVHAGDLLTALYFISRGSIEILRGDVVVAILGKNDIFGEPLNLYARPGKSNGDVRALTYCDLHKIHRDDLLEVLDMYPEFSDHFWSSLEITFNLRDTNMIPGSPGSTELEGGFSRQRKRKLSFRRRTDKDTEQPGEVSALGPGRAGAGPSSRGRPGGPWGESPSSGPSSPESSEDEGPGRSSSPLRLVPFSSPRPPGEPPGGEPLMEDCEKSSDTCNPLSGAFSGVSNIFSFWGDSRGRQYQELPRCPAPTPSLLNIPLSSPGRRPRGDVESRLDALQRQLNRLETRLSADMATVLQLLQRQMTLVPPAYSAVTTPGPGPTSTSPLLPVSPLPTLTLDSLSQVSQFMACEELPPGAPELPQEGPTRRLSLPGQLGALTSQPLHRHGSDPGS

Consider `COC(CN1CCc2ccc(OCC(F)(F)F)nc2CC1)[C@H]1CC[C@H](NC(=O)Cc2cnc(C)o2)CC1` (single isomer, unassigned) [Example I-045], for which the pKi was 9.09 in data set [1] and 5.77 in data set [2] (setting [4]). For the same compound, the inhibition at 3 µM in data set [3] amounted to 18.3%.
For `COC(CN1CCc2sc(OCC(C)(F)F)nc2C1)C1CC2(CC(NC(=O)c3cccc4nn(C)cc34)C2)C1` (single isomer, unassigned) [Example I-047], in that order: 10.24, 6.96 and 13.6%.
In the case of `Cn1cc2c(C(=O)N[C@H]3CC4(C3)C[C@](F)(CCN3CCc5nc(OCC(F)(F)F)sc5CC3)C4)cccc2n1` (single isomer, unassigned) [Example I-049], the results for the pKi in data set [1] and in data set [2] (setting [4]) were 9.48 and 6.51, respectively. Moreover, in data set [3], the inhibition at 3 µM came to 36.8%.
On to `Cc1ncc(CC(=O)N[C@H]2CC[C@H](CCN3CCc4sc(OC5CC(F)(F)C5)nc4C3)CC2)o1` [Example I-002], for which the pKi in data set [1] was 9.33. In data set [3], this compound gave an inhibition at 3 µM of 30.3%.
For `Cc1nc(CC(=O)N[C@H]2CC[C@H](CCN3CCc4ccc(CCC(F)(F)F)nc4CC3)CC2)nn1C` [I′-14], the pKi was 9.68 in data set [1] and less than 5.64 in data set [2] ([3H]-Methylspiperone 1.2 nM).
Turning to `Cc1nc(CC(=O)N[C@H]2CC[C@H](CCN3CCc4ccc(CCC(F)(F)F)nc4CC3)CC2)n(C)n1` [I′-15], the values for the pKi in data set [1] and in data set [2] ([3H]-Methylspiperone 1.2 nM) were 8.85 and 5.77, respectively.
As for `Cc1ncc(CC(=O)N[C@H]2CC[C@H](CCN3CCc4ccc(CCC(F)(F)F)nc4CC3)CC2)cn1` [I′-16], the pKi in data set [1] is 9.44; in data set [2] ([3H]-Methylspiperone 1.2 nM), 5.74.
On to `Cc1cc(CC(=O)N[C@H]2CC[C@H](CCN3CCc4ccc(CCC(F)(F)F)nc4CC3)CC2)on1` [I′-17], for which the pKi in data set [1] was 9.82; in data set [2] ([3H]-Methylspiperone 1.2 nM) it was less than 5.64.
As for `Cn1cc(CC(=O)N[C@H]2CC[C@H](CCN3CCc4ccc(CCC(F)(F)F)nc4CC3)CC2)c(F)n1` [I′-18], the pKi was 9.42 in data set [1] and 6.00 in data set [2] ([3H]-Methylspiperone 1.2 nM).
With `Cn1ncc(CC(=O)N[C@H]2CC[C@H](CCN3CCc4ccc(CCC(F)(F)F)nc4CC3)CC2)c1F` [I′-19], the values for the pKi in data set [1] and in data set [2] ([3H]-Methylspiperone 1.2 nM) were 9.44 and 5.96, respectively.
In the case of `Cc1ncc(/C=C/C(=O)N[C@H]2CC[C@H](CCN3CCc4ccc(CCC(F)(F)F)nc4CC3)CC2)cn1` [I′-20], the pKi was 9.42 in data set [1] and 6.59 in data set [2] ([3H]-Methylspiperone 1.2 nM).
For `Cc1cc(CC(=O)N[C@H]2CC[C@H](CCN3CCc4ccc(CCC(F)(F)F)nc4CC3)CC2)no1` [I′-21], in that order: 9.00 and less than 5.64.
Consider `Cn1ncc(CC(=O)N[C@H]2CC[C@H](CCN3CCc4nc(OCC(F)(F)F)sc4CC3)CC2)c1F` [I′-22], for which the pKi in data set [1] was 10.00; in data set [2] ([3H]-Methylspiperone 1.2 nM), 5.70.
Take `Cn1ncc(CC(=O)N[C@H]2CC[C@](F)(CCN3CCc4nc(OCC(F)(F)F)sc4CC3)CC2)c1F` [I′-23]: the pKi was 9.55 in data set [1] and less than 5.66 in data set [2] ([3H]-Methylspiperone 1.2 nM).
For the compound `Cn1cc(CC(=O)N[C@H]2CC[C@H](CCN3CCc4nc(OCC(F)(F)F)sc4CC3)CC2)c(F)n1` [I′-24], the pKi in data set [1] is 9.77; in data set [2] ([3H]-Methylspiperone 1.2 nM), 6.20.
For `Cn1cc(CC(=O)N[C@H]2CC[C@](F)(CCN3CCc4nc(OCC(F)(F)F)sc4CC3)CC2)c(F)n1` [I′-25], in that order: 9.54 and 6.14.
In the case of `Cn1ncc(CC(=O)N[C@H]2CC[C@H](CCN3CCc4nc(OCC(C)(F)F)sc4CC3)CC2)c1F` [I′-26], the pKi is 9.77 in data set [1] and 6.06 in data set [2] ([3H]-Methylspiperone 1.2 nM).
For `Cn1cc(CC(=O)N[C@H]2CC[C@H](CCN3CCc4nc(OCC(C)(F)F)sc4CC3)CC2)c(F)n1` [I′-27], the pKi in data set [1] was 10.05; in data set [2] ([3H]-Methylspiperone 1.2 nM), less than 5.66.
`Cn1ncc(CC(=O)N[C@H]2CC[C@H](CCN3CCc4nc(OCC(F)F)sc4CC3)CC2)c1F` [I′-28]: the pKi in data set [1] was 9.68; in data set [2] ([3H]-Methylspiperone 1.2 nM), 5.82.
In the case of `Cn1ncc(CC(=O)N[C@H]2CC[C@](F)(CCN3CCc4nc(OCC(F)F)sc4CC3)CC2)c1F` [I′-29], the figures for the pKi in data set [1] and in data set [2] ([3H]-Methylspiperone 1.2 nM) were 8.51 and less than 5.66, respectively.
For `Cn1cc(CC(=O)N[C@H]2CC[C@H](CCN3CCc4nc(OCC(F)F)sc4CC3)CC2)c(F)n1` [I′-30] the same measures were 9.72 and 5.80.
For `Cn1cc(CC(=O)N[C@H]2CC[C@](F)(CCN3CCc4nc(OCC(F)F)sc4CC3)CC2)c(F)n1` [I′-31] the same measures were 9.24 and 5.89.
For the compound `Cn1cc(CC(=O)N[C@H]2CC[C@H](CCN3CCc4ccc(OCC(F)F)nc4CC3)CC2)c(F)n1` [I′-32], the pKi in data set [1] was 9.80; in data set [2] ([3H]-Methylspiperone 1.2 nM) it was 5.92.
Turning to `Cn1ncc(CC(=O)N[C@H]2CC[C@H](CCN3CCc4ccc(OCC(F)F)nc4CC3)CC2)c1F` [I′-33], the pKi in data set [1] was 9.07; in data set [2] ([3H]-Methylspiperone 1.2 nM), 5.80.
For `Cn1ncc(CC(=O)N[C@H]2CC[C@](F)(CCN3CCc4ccc(OCC(F)F)nc4CC3)CC2)c1F` [I′-35] the same measures were 9.39 and 5.74.
For the compound `Cn1ncc(CC(=O)N[C@H]2CC[C@H](CCN3CCc4nc(OCC(F)(F)F)sc4CC3)CC2)n1` [I′-36], the pKi is 10.15 in data set [1] and 6.13 in data set [2] ([3H]-Methylspiperone 1.2 nM).
For `Cn1ncc(CC(=O)N[C@H]2CC[C@H](CCN3CCc4nc(OCC(F)F)sc4CC3)CC2)n1` [I′-40], in that order: 9.72 and 5.72.
For `Cn1ncc(CC(=O)N[C@H]2CC[C@H](CCN3CCc4ccc(OCC(C)(F)F)nc4CC3)CC2)n1` [I′-42], in that order: 10.80 and 6.30.
For `Cn1ncc(CC(=O)N[C@H]2CC[C@](F)(CCN3CCc4ccc(OCC(F)(F)F)nc4CC3)CC2)n1` [I′-43] the same measures were 10.11 and 6.46.
For `Cn1ncc(CC(=O)N[C@H]2CC[C@H](CCN3CCc4ccc(OCC(F)F)nc4CC3)CC2)n1` [I′-44], the pKi in data set [1] was 9.96; in data set [2] ([3H]-Methylspiperone 1.2 nM) it was 5.70.
With `Cc1ncc(/C=C/C(=O)N[C@H]2CC[C@H](CCN3CCc4sc(C5CC(F)(F)C5)nc4C3)CC2)cn1` [I′-45], the pKi in data set [1] was 9.96; in data set [2] ([3H]-Methylspiperone 1.2 nM) it was 6.68.
As for `Cc1ncc(OCC(=O)N[C@H]2CC[C@](F)(CCN3CCc4ccc(OCC(C)(F)F)nc4CC3)CC2)cn1` [I′-46], the pKi in data set [1] is 9.48; in data set [2] ([3H]-Methylspiperone 1.2 nM) it was 6.59.
On to `Cc1ncc(/C=C/C(=O)N[C@H]2CC[C@](F)(CCN3CCc4ccc(OCC(C)(F)F)nc4CC3)CC2)cn1` [I′-47], for which the values for the pKi in data set [1] and in data set [2] ([3H]-Methylspiperone 1.2 nM) were 10.09 and 7.39, respectively.
Turning to `Cc1ncc(/C=C/C(=O)N[C@H]2CC[C@](F)(CCN3CCc4nc(OCC(F)(F)F)sc4CC3)CC2)cn1` [I′-48], the results for the pKi in data set [1] and in data set [2] ([3H]-Methylspiperone 1.2 nM) were 9.57 and less than 5.66, respectively.
In the case of `Cn1c(C(=O)N[C@H]2CC[C@](F)(CCN3CCc4nc(OCC(F)(F)F)sc4CC3)CC2)cccc1=O` [I′-49], the pKi was 9.23 in data set [1] and 6.54 in data set [2] ([3H]-Methylspiperone 1.2 nM).
For the compound `Cc1nc(CC(=O)N[C@H]2CC[C@](F)(CCN3CCc4nc(OCC(F)(F)F)sc4CC3)CC2)nn1C` [I′-50], the figures for the pKi in data set [1] and in data set [2] ([3H]-Methylspiperone 1.2 nM) were 9.64 and 5.80, respectively.
For the compound `Cc1ncc(CC(=O)N[C@H]2CC[C@](F)(CCN3CCc4nc(OCC(F)(F)F)sc4CC3)CC2)cn1` [I′-51], the values for the pKi in data set [1] and in data set [2] ([3H]-Methylspiperone 1.2 nM) were 9.32 and 6.05, respectively.
Turning to `Cc1cnc(OCC(=O)N[C@H]2CC[C@](F)(CCN3CCc4nc(OCC(F)(F)F)sc4CC3)CC2)cn1` [I′-52], the pKi was 9.77 in data set [1] and less than 5.66 in data set [2] ([3H]-Methylspiperone 1.2 nM).
Take `Cc1cnc(OCC(=O)N[C@H]2CC[C@](F)(CCN3CCc4ccc(OCC(F)F)nc4CC3)CC2)cn1` [I′-53]: the figures for the pKi in data set [1] and in data set [2] ([3H]-Methylspiperone 1.2 nM) were 9.49 and less than 5.66, respectively.
In the case of `Cc1ncc(OCC(=O)N[C@H]2CC[C@H](CCN3CCc4nc(OCC(F)F)sc4CC3)CC2)cn1` [I′-54], the values for the pKi in data set [1] and in data set [2] ([3H]-Methylspiperone 1.2 nM) were 9.49 and 5.80, respectively.
On to `Cc1ncc(CC(=O)N[C@H]2CC[C@H](CCN3CCc4nc(OCC(C)(F)F)sc4CC3)CC2)cn1` [I′-55], for which the pKi in data set [1] is 9.80; in data set [2] ([3H]-Methylspiperone 1.2 nM) it was 6.02.
Turning to `Cc1ncc(CC(=O)N[C@H]2CC[C@H](CCN3CCc4nc(OCC(F)F)sc4CC3)CC2)cn1` [I′-56], the pKi in data set [1] was 9.52; in data set [2] ([3H]-Methylspiperone 1.2 nM) it was 5.85.
For `Cc1ncc(CC(=O)N[C@H]2CC[C@H](CCN3CCc4cc(F)c(OCC(F)F)nc4CC3)CC2)o1` [I′-57] the same measures were 9.28 and less than 5.66.
